This note sets out measurements from ChEMBL document CHEMBL4842341, “Discovery of IACS-9779 and IACS-70465 as Potent Inhibitors Targeting Indoleamine 2,3-Dioxygenase 1 (IDO1) Apoenzyme” (J Med Chem, 2021).

Series [1] can be described thus: Drug concentration in plasma of NSG mouse xenografted with human SKOV3 cells at 3 mg/kg, po QD measured at 24 hrs post dose. Format: ADME, organism-based, SK-OV-3.
A short description of series [2]: in vitro. The note with it: human, liver microsomes.
Series [3] is described as follows: Drug concentration in tumor of NSG mouse xenografted with human SKOV3 cells at 3 mg/kg, po QD measured at 24 hrs post dose. The note with it: read-out: Drug uptake. Format: ADME, organism-based, Neoplasm, SK-OV-3.
Series [4] can be described thus: in vivo. Conditions: CD-1, mouse, po, 10 mg/kg.
The nature of series [5]: in vivo. The note with it: CD-1, mouse, iv, 0.3 mg/kg.
Series [6] can be described thus: in vivo. Conditions: CD-1, mouse, po, 10 mg/kg. The source holds these as a separate data set.
A short description of series [7]: in vivo. The note with it: CD-1, mouse, iv, 0.3 mg/kg. This is another data set of the same source.
Series [8] in a line: in vivo. The note with it: CD-1, mouse, iv, 0.3 mg/kg. The source holds these as a separate data set.
Series [9] can be described thus: Drug concentration in plasma of NSG mouse xenografted with human SKOV3 cells at 125 mg/kg, po BID measured after 12 hrs by LC-MS analysis. It is filed as ADME, organism-based, SK-OV-3.
Series [10] is described as follows: Drug concentration in tumor of NSG mouse xenografted with human SKOV3 cells at 125 mg/kg, po BID measured after 12 hrs by LC-MS analysis. Format: ADME, organism-based, Neoplasm, SK-OV-3. The note with it: read-out: Drug uptake.
A short description of series [11]: in vivo. Conditions: NSG, mouse, plasma, po, 125 mg/kg.
Series [12] is described as follows: in vivo. The note with it: NSG, mouse, tumor, po, 125 mg/kg.
Series [13] is described as follows: in vivo. Conditions: CD-1, mouse, iv, 0.3 mg/kg. This is another data set of the same source.
A short description of series [14]: AUC in rat plasma at 250 mg/kg, po QD administered for 7 days. It is filed as ADME, organism-based. On the set-up: dose 250 mg/kg, time 7 day.
Series [15] can be described thus: in vivo. The note with it: NSG, mouse, tumor, po, 125 mg/kg. The source holds these as a separate data set.
Series [16] can be described thus: Drug concentration in plasma of NSG mouse xenografted with human SKOV3 cells at 200 mg/kg, po BID measured after 12 hrs by LC-MS analysis. It is filed as ADME, organism-based, SK-OV-3.
A short description of series [17]: in vivo. Conditions: NSG, mouse, plasma, po, 125 mg/kg. The source holds these as a separate data set.
A short description of series [18]: Drug concentration in tumor of NSG mouse xenografted with human SKOV3 cells at 200 mg/kg, po BID measured after 12 hrs by LC-MS analysis. Conditions: read-out: Drug uptake. It is filed as ADME, organism-based, Neoplasm, SK-OV-3.
A short description of series [19]: in vitro. The note with it: rat, liver microsomes.

`CCC(c1nc2cc(Cl)ccc2[nH]1)[C@H]1[C@@H]2C[C@@H](c3ccnc4ccc(F)cc34)C[C@@H]21` (stereo partly specified): the concentration at 24 h in [1] was 1900 nM; in series [3], 500 nM. Besides, the intrinsic metabolic clearance (CLint scaled) at 0.75 h, 1 µM in [2] was found to be 17 mL/min/kg.
In [4], `C[C@H](C(=O)Nc1ccc(Cl)cc1)[C@H]1CC[C@@H](c2ccnc3ccc(F)cc32)CC1` registered a maximum concentration (Cmax) at 24 h of 4100 nM. For the same compound, the clearance at 24 h in series [5] was 33.3 mL/min/kg. Also, the bioavailability at 24 h in series [6] came to 39%. The same compound registered a Vd at 24 h in series [7] of 4.5 L/kg. The compound also came in with an AUC(0-inf) at 24 h in series [8] of 0.37 µM·h. Besides, the concentration at 12 h in series [9] was found to be 60 nM; in [10], 610 nM. Further, the concentration at 120 h in series [11] worked out at 20 nM; in series [12] it was 900 nM. The half-life at 24 h in series [13] was 1.57 h. In series [14], this compound returned an exposure (AUC) at 168 h of 95 µM·h. The CLint scaled at 0.75 h, 1 µM in series [2] came to 28 mL/min/kg.
The compound `NS(=O)(=O)NCCNc1nonc1C(=NO)Nc1ccc(F)c(Br)c1` [EPACADOSTAT] showed a Cmax at 24 h in series [4] of 2000 nM. Moreover, the concentration at 120 h came out at 3200 nM in series [15] and 100 nM in series [17]. The clearance at 24 h in [5] is 53.3 mL/min/kg. In addition, the bioavailability at 24 h in series [6] amounted to 50%. The compound further registered a distribution volume (Vd) at 24 h in series [7] of 7.5 L/kg. In series [8], the AUC(0-inf) at 24 h amounted to 0.21 µM·h. In [13], this compound showed a half-life at 24 h of 1.6 h. For the same compound, the concentration at 12 h was determined as 690 nM in series [16] and 5000 nM in series [18]. The compound also gave an intrinsic metabolic clearance (CLint scaled) at 0.75 h, 1 µM in series [19] of 32 mL/min/kg.
